In patent EP0486280A2, “Piperidinylcamphorsulfonyl oxytocin antagonists” (MERCK & CO. INC., priority 1990, dated 1992):

Target: T1, uterine OT receptors (Rattus norvegicus, UniProt P70536)
T1 construct: from tissue; host or cells: uterus of DES-treated rats, crude membranes
T1 sequence (P70536 1-388): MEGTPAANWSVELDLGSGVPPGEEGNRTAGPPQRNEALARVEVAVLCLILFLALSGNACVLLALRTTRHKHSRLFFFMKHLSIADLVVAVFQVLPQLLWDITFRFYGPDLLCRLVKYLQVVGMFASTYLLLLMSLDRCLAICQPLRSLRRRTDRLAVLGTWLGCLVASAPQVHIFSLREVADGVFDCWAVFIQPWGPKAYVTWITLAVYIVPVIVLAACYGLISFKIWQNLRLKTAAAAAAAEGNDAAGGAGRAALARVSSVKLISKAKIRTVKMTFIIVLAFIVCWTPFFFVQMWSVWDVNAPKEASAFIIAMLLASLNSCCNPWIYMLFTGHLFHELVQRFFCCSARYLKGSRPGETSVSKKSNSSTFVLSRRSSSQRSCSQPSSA
Assay: saturation binding of [^3H]OT, crude membrane preparation of uteri
Design: species or system rats
Settings: radioligand Kd from saturation binding assay; uterus
Experimental: The high affinity binding of [^3H] Oxytocin(OT)([tyrosyl, 3,5-[^3H]OT; 30-60 Ci/mmol; New England Nuclear. Boston, MA) to uterine OT receptors was based on an assay^* using a crude membrane preparation of uteri taken from diethylstilbestrol dipropionate (DES)-treated (0.3 mg/kg, ip; 18-24) rats. Competition studies were conducted at equilibrium (60 minutes; 22°C) using 1 nM[^3H]OT in the following assay buffer: 50 mM Tris-HCI, 5 mM MgCl2, and 0.1% BSA, pH 7.4. Nonspecific binding (10% of the total binding) was determined using 1 mM unlabeled OT and the binding reaction was terminated by filtration through glass fiber filters using a cell harvester (model 7019, Skatron, Inc., Sterling, VA).
1985 J. Clin. Endocrinol. Metab. 60:37.

`CC[C@H](C)[C@@H]1NC(=O)[C@H](Cc2ccc(O)cc2)NC(=O)[C@@H](N)CSSC[C@@H](C(=O)N2CCC[C@H]2C(=O)N[C@@H](CC(C)C)C(=O)NCC(N)=O)NC(=O)[C@H](CC(N)=O)NC(=O)[C@H](CCC(N)=O)NC1=O` [[^3H]OT] gave a Kd of 700 pM.
